# pIC50: −log10 of the molar value.
# Target: T1, P236L viral reverse transcriptase (Human immunodeficiency virus type 1 group M subtype B, UniProt P04585, P823L)
# T1 construct: P236L viral reverse transcriptase is obtained by PNAS 90: 4713-4717 (1993); made in house
# Test: inhibition of viral reverse transcriptase (P236L), cell free assay
# Format: biochemical
# Details: 30 minutes at 37° C., read-out: IC50 (Table I, P236L)
# From the text: The utility of the pyrimidine-thioalkyl and alkylether anti-AIDS compounds of Formula IA of this invention can be determined by their ability to inhibit viral reverse transcriptase, an enzyme essential for human immunodeficiency virus replication. This enzyme has characteristics which differentiate it from other known cellular polymerases and it is a unique enzyme which is not found in uninfected cells. Viral reverse transcriptase (Wild Type) is found in extracts from bacterial clones prepared according to the procedure described in AIDS Virus Reverse Transcriptase defined by high level expression in Escherichia coli, EMBO J. 6:3133-3137 (1987). P236L viral reverse transcriptase is obtained by PNAS 90: 4713-4717 (1993). Inhibition of this enzyme is determined in a cell free assay which measures the level of radioactive precursors incorporated into DNA. Extracts prepared according to the procedure of Science, 1125-1129 (1981) are incubated in a mixture of inhibitor, 20 mM dithiothreitol, 60 mM sodium chloride, 0.05% NP-40, 10 mM magnesium chloride, 50 mM Tris pH 8.3, 10 μM [^35 S]-labeled deoxynuleoside-5'-triphosphate, 10 μg/ml RNA template (poly rC or poly rG) and 5 μg/ml DNA primer (oligo dG or oligo dT) for 30 minutes at 37° C. Incorporation of radio-labeled percursor is determined by spotting aliquots of the reaction mixture on DE81 paper, washing the papers to remove unincorporated percursor, drying and determining counts. The results (IC50 means the concentration, in μM of drug, required to inhibit the reverse transcriptase activity (P236L and Wild Type) to the extent of 50%) of various assay(s) are combined and reported as % inhibition and/or IC50 (calculated) in Table I (P236L) and Table II (Wild Type).
row,Compound,pIC50
1,"4-Amino-6-chloro-2-[[(5-chloroimidazo[1,2-a]pyridin-2-yl)methyl]thio]-pyrimidine [Example 172]",4.30
2,"Nc1cc(Cl)nc(SCc2c(F)cccc2F)n1 [Example 34, 4-amino-6-chloro-2-(2,6-difluorophenylmethylthio)-pyrimidine]",5.00
3,"Nc1cc(Cl)nc(SCc2ccccc2)n1 [Example 34A, 4-amino-6-chloro-2-(benzylthio)-pyrimidine]",5.70
4,"Cc1ccccc1CSc1nc(N)cc(Cl)n1 [Example 35, 4-amino-6-chloro-2-(2-methylphenylmethylthio)-pyrimidine]",6.52
5,"Cc1cccc(CSc2nc(N)cc(Cl)n2)c1 [Example 36, 4-amino-6-chloro-2-(3-methylphenylmethylthio)-pyrimidine]",7.30
6,"Cc1ccc(CSc2nc(N)cc(Cl)n2)cc1 [Example 37, 4-amino-6-chloro-2-(4-methylphenylmethylthio)-pyrimidine]",6.48
7,"Nc1cc(Cl)nc(SCc2cccc(C(F)(F)F)c2)n1 [Example 38, 4-amino-6-chloro-2-(3-trifluoromethylphenylmethylthio)-pyrimidine]",6.00
8,"COc1cccc(CSc2nc(N)cc(Cl)n2)c1 [Example 39, 4-amino-6-chloro-2-(3-methoxyphenylmethylthio)-pyrimidine]",6.80
9,"Nc1cc(Cl)nc(SCc2cccc(F)c2)n1 [Example 41, 4-amino-6-chloro-2-(3-fluorophenylmethylthio)-pyrimidine]",6.70
10,"Nc1cc(Cl)nc(SCc2cccc(Cl)c2)n1 [Example 42, 4-amino-6-chloro-2-(3-chlorophenylmethylthio)-pyrimidine]",6.30
11,"Nc1cc(Cl)nc(SCc2cccc(Br)c2)n1 [Example 43, 4-amino-6-chloro-2-(3-bromophenylmethylthio)-pyrimidine]",6.85
12,"Nc1cc(Cl)nc(SCc2cccc(I)c2)n1 [Example 44, 4-amino-6-chloro-2-(3-iodophenylmethylthio)-pyrimidine]",6.22
13,"Nc1cc(Cl)nc(SCc2cccc([N+](=O)[O-])c2)n1 [Example 45, 4-amino-6-chloro-2-(3-nitrophenylmethylthio)-pyrimidine]",6.96
14,"COC(=O)c1cccc(CSc2nc(N)cc(Cl)n2)c1 [Example 46, 4-amino-6-chloro-2-(3-carbomethoxyphenylmethylthio)-pyrimidine]",7.00
15,"CC(C)(C)c1ccc(CSc2nc(N)cc(Cl)n2)cc1 [Example 47, 4-amino-6-chloro-2-(4-t-butylphenylmethylthio)-pyrimidine]",6.00
16,"Nc1cc(Cl)nc(SCc2ccc(F)c(F)c2)n1 [Example 48, 4-amino-6-chloro-2-(3,4-difluorophenylmethylthio)-pyrimidine]",6.30
17,"Nc1cc(Cl)nc(SCc2ccc(Cl)c(Cl)c2)n1 [Example 49, 4-amino-6-chloro-2-(3,4-dichlorophenylmethylthio)-pyrimidine]",7.22
18,"Nc1cc(Cl)nc(SCc2cc(Cl)cc(Cl)c2)n1 [Example 50, 4-amino-6-chloro-2-(3,5-dichlorophenylmethylthio)-pyrimidine]",6.48
19,"Nc1cc(Cl)nc(SCc2ccc(Cl)cc2Cl)n1 [Example 51, 4-amino-6-chloro-2-(2,4-dichlorophenylmethylthio)-pyrimidine]",6.00
20,"Nc1cc(Cl)nc(SCc2cc(Br)cc(Br)c2)n1 [Example 52, 4-amino-6-chloro-2-(3,5-dibromophenylmethylthio)-pyrimidine]",6.70
21,"Nc1nc(SCc2ccccc2)nc(Cl)c1C1CCCCC1 [Example 53, 4-amino-6-chloro-5-cyclohexyl-2-(benzylthio)-pyrimidine]",4.82
22,"Nc1cc(Cl)nc(SCc2ccccn2)n1 [Example 55, 4-amino-6-chloro-2-(2-pyridylmethylthio)-pyrimidine]",8.70
23,"Nc1cc(Cl)nc(SCc2cccnc2)n1 [Example 57, 4-amino-6-chloro-2-(3-pyridylmethylthio)-pyrimidine]",5.00
24,"Nc1cc(Cl)nc(SCc2cccc3ccccc23)n1 [Example 58, 4-amino-6-chloro-2-(1-naphthylmethylthio)-pyrimidine]",7.52
25,"Nc1cc(Cl)nc(SCc2ccc3ccccc3c2)n1 [Example 59, 4-amino-6-chloro-2-(2-naphthylmethylthio)-pyrimidine]",7.44

row,Compound,pIC50
1,"Nc1cc(Cl)nc(SCc2ccc3cc(F)c(F)cc3c2)n1 [Example 60, 4-amino-6-chloro-2-(6,7-difluoro-2-naphthylmethylthio)-pyrimidine]",5.00
2,"Nc1cc(Cl)nc(SCc2ccc3ccccc3n2)n1 [Example 61, 4-amino-6-chloro-2-(2-quinolinylmethylthio)-pyrimidine]",5.30
3,"Nc1cc(Cl)nc(SCc2cc3c(cc2Cl)OCO3)n1 [Example 62, 4-amino-6-chloro-2-(6-chloro-5-piperonylmethylthio)-pyrimidine]",7.70
4,"Nc1cc(Cl)nc(SC/C=C/c2ccccc2)n1 [Example 64, 4-amino-6-chloro-2-(E-styrylmethylthio)-pyrimidine]",7.18
5,"Nc1cc(Cl)nc([S+]([O-])Cc2cccc(Br)c2)n1 (centres unmarked) [Example 67, 4-amino-6-chloro-2-(3-bromophenylmethylsulfinyl)pyrimidine]",4.60
6,"Nc1cc(Cl)nc([S+]([O-])Cc2ccc3ccccc3c2)n1 (centres unmarked) [Example 68, 4-amino-6-chloro-2-(2-naphthylmethylsulfinyl)-pyrimidine]",5.30
7,"Nc1cc(Cl)nc(S(=O)(=O)Cc2cccc(Br)c2)n1 [Example 69, 4-amino-6-chloro-2-(3-bromophenylmethylsulfonyl)pyrimidine]",4.70
8,"Clc1cc(N2CCCCC2)nc(SCc2ccccc2)n1 [Example 84, 4-piperido-6-chloro-2-(benzylthio)-pyrimidine]",5.00
9,"Clc1cc(N2CCCC2)nc(SCc2ccccc2)n1 [Example 85, 4-pyrrolidino-6-chloro-2-(benzylthio)-pyrimidine]",4.52
10,"Clc1cc(N2CCOCC2)nc(SCc2ccccc2)n1 [Example 86, 4-morpholino-6-chloro-2-(benzylthio)-pyrimidine]",4.40
11,"CCCNc1cc(Cl)nc(SCc2ccccc2)n1 [Example 87, 4-propylamino-6-chloro-2-(benzylthio)-pyrimidine]",4.00
12,"NNc1cc(Cl)nc(SCc2ccccc2)n1 [Example 88, 4-hydrazino-6-chloro-2-(benzylthio)-pyrimidine]",5.30
13,"COc1c(N)nc(SCc2ccc3ccccc3c2)nc1Cl [Example 89, 4-amino-5-methoxy-6-chloro-2-(2-naphthylmethylthio)-pyrimidine]",5.30
14,"Cc1c(N)nc(SCc2ccc3ccccc3c2)nc1Cl [Example 90, 4-amino-5-methyl-6-chloro-2-(2-naphthylmethylthio)-pyrimidine]",5.30
15,"Nc1nc(SCc2ccc3ccccc3c2)nc(Cl)c1F [Example 91, 4-amino-5-fluoro-6-chloro-2-(2-naphthylmethylthio)-pyrimidine]",5.60
16,"Nc1nc(SCc2ccccn2)nc(Cl)c1F [Example 92, 4-amino-5-fluoro-6-chloro-2-(2-pyridylmethylthio)-pyrimidine]",6.00
17,"Nc1ccnc(SCc2cccc(Br)c2)n1 [Example 95, 4-amino-2-(3-bromophenylmethylthio)-pyrimidine]",6.00
18,"Cc1cccc(CSc2nccc(N)n2)c1 [Example 96, 4-amino-2-(3-methylphenylmethylthio)-pyrimidine]",4.30
19,"Nc1ccnc(SCc2ccc3ccccc3c2)n1 [Example 98, 4-amino-2-(2-naphthylmethylthio)-pyrimidine]",5.30
20,"Nc1cc(Cl)nc(SCC(=O)c2ccccc2)n1 [Example 100, 4-amino-6-chloro-2-[2-(1-phenyl-1-ethanon)thio]-pyrimidine]",5.70
21,"CC(C)Oc1cccc(CSc2nc(N)cc(Cl)n2)c1 [Example 109, 4-amino-6-chloro-2-(3-isopropoxyphenylmethylthio)-pyrimidine]",5.70
22,"Nc1cc(Cl)nc(SCc2cc(Cl)ccn2)n1 [Example 111, 4-amino-6-chloro-2-[2-(4-chloro)-5 pyridylmethylthio]-pyrimidine]",7.52
23,"Nc1cc(Cl)nc(SCc2cccc(Cl)n2)n1 [Example 112, 4-amino-6-chloro-2-[2-(6-chloro)pyridylmethylthio]-pyrimidine]",7.15
24,"Cc1cccc(CSc2nc(N)cc(Cl)n2)n1 [Example 113, 4-amino-6-chloro-2-[2-(6-methyl)pyridylmethylthio]-pyrimidine]",7.05

# Same assay, conditions: IC50 (Table I, P236L), 30 minutes at 37° C.
row,Compound,pIC50
1,"Nc1cc(Cl)nc(SCc2nc3ccccc3s2)n1 [Example 99, 4-amino-6-chloro-2-(2-benzothiazolomethylthio)-pyrimidine]",6.30
